# Measurements reported in US9073854B2, “Aromatic sulfonium salt compound” (ADEKA CORPORATION, priority 2009, dated 2015).
# Assay: Solubility in polyvinylphenol/tetramethylammonium hydroxide (TMAH) aqueous solution
# Assay type: physicochemical
# Conditions: mass ratio of compound to polyvinylphenol of the saturated solution; polyvinylphenol in 3% TMAH aqueous solution
# Description: In a screw-top tube were put 0.36 g of polyvinylphenol (S-2P from Maruzen Petrochemical Co., Ltd.; Mw: 5800) and 10.00 g of a 3% TMAH aqueous solution and heated to dissolve. A 2.00 g portion of the resulting solution was put in another screw-top tube, and a small amount of each of compound Nos. 1 and 5 and comparative compound No. 1 (intermediate No. 7 obtained in step 1 of Example 1-7) was added thereto and heated. A visual check was made to see whether the compound dissolved. This operation was repeated until saturation. The saturated solution was allowed to stand one day to make sure that no solid precipitated. The mass ratio of each compound to the polyvinylphenol of the saturated solution was taken as a parameter of solubility.
row,SMILES,Solubility (%)
1,O=c1c2ccccc2n(Cc2cccc(O)c2)c2ccc([S+](c3ccc(F)cc3)c3ccc(F)cc3)cc12 [Compound No. 5],29%
2,Cn1c2ccccc2c(=O)c2cc([S+](c3ccc(O)cc3)c3ccc(O)cc3)ccc21 [Compound No. 1],70%
3,"Cn1c2ccccc2c(=O)c2cc([S+](c3ccc(F)cc3)c3ccc(F)cc3)ccc21 [Comp. Compound No. 1, reference compound]",< 1%
